The results in this text go back to patent US9012398B2, “Acylated exendin-4 compounds” (priority 2006, dated 2015).

The target of one series is T1, human GLP-1 receptor (Homo sapiens, UniProt P43220).
T1 construct: expressed in transfected cells; host or cells: BHK cells, clone BHK-467-12A; plasma membrane preparation
The series can be described thus: Functional receptor assay: cAMP formation in plasma membranes of BHK cells expressing the cloned human GLP-1 receptor (GLP1cAMPma). Format: biochemical. As to the method: The term “insulinotropic agent” as used herein means a compound which is an agonist of the human GLP-1 receptor, i.e. a compound which stimulates the formation of cAMP in a suitable medium containing the human GLP-1 receptor (one such medium disclosed below). The potency of an insulinotropic agent is determined by calculating the EC50 value from the dose-response curve as described below.
The cells were washed twice in phosphate buffered saline and harvested with Versene. Plasma membranes were prepared from the cells by homogenisation with an Ultraturrax in buffer 1 (20 mM HEPES-Na, 10 mM EDTA, pH 7.4). The homogenate was centrifuged at 48,000×g for 15 min at 4° C. The pellet was suspended by homogenization in buffer 2 (20 mM HEPES-Na, 0.1 mM EDTA, pH 7.4), then centrifuged at 48,000×g for 15 min at 4° C. The washing procedure was repeated one more time. The final pellet was suspended in buffer 2 and used immediately for assays or stored at −80° C.
The functional receptor assay was carried out by measuring cyclic AMP (cAMP) as a response to stimulation by the insulinotropic agent. cAMP formed was quantified by the AlphaScreen™ cAMP Kit (Perkin Elmer Life Sciences). Incubations were carried out in half-area 96-well microtiter plates in a total volume of 50 μL buffer 3 (50 mM Tris-HCl, 5 mM HEPES, 10 mM MgCl2, pH 7.4) and with the following additions: 1 mM ATP, 1 μM GTP, 0.5 mM 3-isobutyl-1-methylxanthine (IBMX), 0.01% Tween-20, 0.1% BSA, 6 μg membrane preparation, 15 μg/mL acceptor beads, 20 μg/mL donor beads preincubated with 6 nM biotinyl-cAMP. […] GTP was freshly prepared for each experiment. The plate was incubated in the dark with slow agitation for three hours at room temperature followed by counting in the Fusion™ instrument (Perkin Elmer Life Sciences). Concentration-response curves were plotted for the individual compounds and EC50 values estimated using a four-parameter logistic model with Prism v. 4.0 (GraphPad, Carlsbad, Calif.).
For orientation: cAMP levels reflect the balance of adenylyl cyclase and phosphodiesterase activity.

A short description of series [1]: Chemical stability of solubilised peptide at 40° C., impurities monitored by RP-HPLC/UPLC. Format: physicochemical. The following applies: for Formation rate of peptide related impurities at 40° C.: 2.5 weeks, 100 nmol peptide in 1 ml phosphate buffered saline, pH 7.4. As to the method: The chemical stability of solubilised acylated exendin-4 compounds were monitored by RP-HPLC following incubation at […]
The formation of exendin analogue related impurities relative to control samples stored in the freezer were monitored with a Waters UPLC system. Samples were applied to Acquity UPLC BEH C18 (1.7 μm) 2.1×50 mm column and eluted at a flow rate of 0.9 ml/min with linear stepwise gradients of acetonitrile in 0.1% trifluoroacetic acid (from 5 to 100% acetonitrile for 10 min, and from 100 to 5% acetonitrile for 1 min). The column was heated to 30 C and detection was performed at 214 nm.

Setting [2] is: cAMP, membranes with human GLP-1 receptor, mean value, read-out: GLP1cAMPma (3693) [EC50 (nM)] Mean Value.

Where two headings read alike, the source gives them in different places. Starred links: 1 amine or outer side, 2 acyl side, 3 side chain; linkers in the order of their positions; H or OH if unused. Residues, ends and D or L forms follow the SMILES beside them. Groups on a side chain read outwards from the residue. *: point of attachment. γGlu = O=C(O)[C@H](CCC(=O)[*:2])N[*:1]; Stearoyl = CCCCCCCCCCCCCCCCCC(=O)*; Palmitoyl = CCCCCCCCCCCCCCCC(=O)*; AEEA = NCCOCCOCC(=O)O

T1 sequence (P43220 24-463): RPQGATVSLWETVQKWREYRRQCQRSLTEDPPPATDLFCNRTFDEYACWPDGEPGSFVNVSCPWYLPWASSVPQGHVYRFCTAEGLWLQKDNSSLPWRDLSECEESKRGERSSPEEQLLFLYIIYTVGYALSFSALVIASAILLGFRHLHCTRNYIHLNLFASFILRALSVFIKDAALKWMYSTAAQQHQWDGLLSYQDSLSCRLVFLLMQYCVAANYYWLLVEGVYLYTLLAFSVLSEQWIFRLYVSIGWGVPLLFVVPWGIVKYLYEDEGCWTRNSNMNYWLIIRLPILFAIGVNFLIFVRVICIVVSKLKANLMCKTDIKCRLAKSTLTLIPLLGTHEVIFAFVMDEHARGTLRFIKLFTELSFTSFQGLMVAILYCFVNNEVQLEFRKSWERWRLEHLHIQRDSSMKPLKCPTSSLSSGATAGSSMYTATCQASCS

By EC50 is commonly meant the concentration needed to bring the measured effect to its halfway point. `CCCCCCCCCCCCCCCC(=O)N[C@@H](CCC(=O)NCCOCCOCC(=O)NCCOCCOCC(=O)NCCCC[C@H](NC(=O)[C@H](CCC(N)=O)NC(=O)[C@H](CCCNC(=N)N)NC(=O)[C@H](CO)NC(=O)[C@H](CC(C)C)NC(=O)[C@H](CC(=O)O)NC(=O)[C@H](CO)NC(=O)[C@@H](NC(=O)[C@H](Cc1ccccc1)NC(=O)[C@@H](NC(=O)CNC(=O)[C@H](CCC(=O)O)NC(=O)CNC(=O)[C@@H](N)Cc1c[nH]cn1)[C@@H](C)O)[C@@H](C)O)C(=O)N[C@@H](CCC(=O)O)C(=O)N[C@@H](CCC(=O)O)C(=O)N[C@@H](CCC(=O)O)C(=O)N[C@@H](C)C(=O)N[C@H](C(=O)N[C@@H](CCCNC(=N)N)C(=O)N[C@@H](CC(C)C)C(=O)N[C@@H](Cc1ccccc1)C(=O)N[C@H](C(=O)N[C@@H](CCC(=O)O)C(=O)N[C@@H](Cc1c[nH]c2ccccc12)C(=O)N[C@@H](CC(C)C)C(=O)N[C@H](C(=O)N[C@@H](CCCNC(=N)N)C(=O)NCC(=O)NCC(=O)N1CCC[C@H]1C(=O)N[C@@H](CO)C(=O)N[C@@H](CO)C(=O)NCC(=O)N[C@@H](C)C(=O)N1CCC[C@H]1C(=O)N1CCC[C@H]1C(=O)N1CCC[C@H]1C(=O)N[C@@H](CO)C(N)=O)C(C)C)[C@@H](C)CC)C(C)C)C(=O)O` [Example 25] (H-HGEGTFTSDLSRQK([AEEA-AEEA-γGlu-Palmitoyl])EEEAVRLFIEWLVRGGPSSGAPPPS-NH2; N-terminus assumed): the 50% effective concentration (EC50) at human GLP-1 receptor (setting [2]) was 0.037 nM. Also, in series [1], the “Formation rate of peptide related impurities at 40° C.” value is 3.0 %/week.

Regarding `CCCCCCCCCCCCCCCCCC(=O)NCCOCCOCC(=O)NCCOCCOCC(=O)NCCOCCOCC(=O)NCCCC[C@H](NC(=O)[C@H](CCC(N)=O)NC(=O)[C@H](CCCNC(=N)N)NC(=O)[C@H](CO)NC(=O)[C@H](CC(C)C)NC(=O)[C@H](CC(=O)O)NC(=O)[C@H](CO)NC(=O)[C@@H](NC(=O)[C@H](Cc1ccccc1)NC(=O)[C@@H](NC(=O)CNC(=O)[C@H](CCC(=O)O)NC(=O)CNC(=O)[C@@H](N)Cc1c[nH]cn1)[C@@H](C)O)[C@@H](C)O)C(=O)N[C@@H](CCC(=O)O)C(=O)N[C@@H](CCC(=O)O)C(=O)N[C@@H](CCC(=O)O)C(=O)N[C@@H](C)C(=O)N[C@H](C(=O)N[C@@H](CCCNC(=N)N)C(=O)N[C@@H](CC(C)C)C(=O)N[C@@H](Cc1ccccc1)C(=O)N[C@H](C(=O)N[C@@H](CCC(=O)O)C(=O)N[C@@H](Cc1c[nH]c2ccccc12)C(=O)N[C@@H](CC(C)C)C(=O)N[C@H](C(=O)N[C@@H](CCCNC(=N)N)C(=O)NCC(=O)NCC(=O)N1CCC[C@H]1C(=O)N[C@@H](CO)C(=O)N[C@@H](CO)C(=O)NCC(=O)N[C@@H](C)C(=O)N1CCC[C@H]1C(=O)N1CCC[C@H]1C(=O)N1CCC[C@H]1C(=O)N[C@@H](CO)C(N)=O)C(C)C)[C@@H](C)CC)C(C)C` [Example 26, N-ε^14-(2-(2-(2-(2-(2-(2-(2-(2-(2-(Octadecanoylamino)ethoxy)ethoxy)acetylamino)ethoxy)ethoxy)acetyl-amino)ethoxy)ethoxy)acetyl)[Arg^12,Lys^14,Val^27,Arg^28]Exendin-4-(1-39)-amide] (H-HGEGTFTSDLSRQK([AEEA-AEEA-AEEA-Stearoyl])EEEAVRLFIEWLVRGGPSSGAPPPS-NH2; N-terminus assumed), the EC50 at human GLP-1 receptor (setting [2]) is 0.088 nM. Also, the “Formation rate of peptide related impurities at 40° C.” value in series [1] was 2.0 %/week.

On to Exendin-4 [reference compound], for which, in series [1] (100 nmol/ml in 50 mM phosphate buffer with 0.05% Tween 80, pH 8.0), the “formation rate of peptide related impurities” value is reported as 40-50 % per week.

`CCCCCCCCCCCCCCCC(=O)N[C@@H](CCC(=O)NCCOCCOCC(=O)NCCOCCOCC(=O)NCCCC[C@H](NC(=O)[C@@H](NC(=O)[C@H](C)NC(=O)[C@H](CCC(=O)O)NC(=O)[C@H](CCC(=O)O)NC(=O)[C@H](CCC(=O)O)NC(=O)[C@H](CC(C)C)NC(=O)[C@H](CCC(N)=O)NC(=O)[C@H](CCCNC(=N)N)NC(=O)[C@H](CO)NC(=O)[C@H](CC(C)C)NC(=O)[C@H](CC(=O)O)NC(=O)[C@H](CO)NC(=O)[C@@H](NC(=O)[C@H](Cc1ccccc1)NC(=O)[C@@H](NC(=O)CNC(=O)[C@H](CCC(=O)O)NC(=O)CNC(=O)[C@@H](N)Cc1c[nH]cn1)[C@@H](C)O)[C@@H](C)O)C(C)C)C(=O)N[C@@H](CC(C)C)C(=O)N[C@@H](Cc1ccccc1)C(=O)N[C@H](C(=O)N[C@@H](CCC(=O)O)C(=O)N[C@@H](Cc1c[nH]c2ccccc12)C(=O)N[C@@H](CC(C)C)C(=O)N[C@@H](CCCNC(=N)N)C(=O)N[C@@H](CCCNC(=N)N)C(=O)NCC(=O)NCC(=O)N1CCC[C@H]1C(=O)N[C@@H](CO)C(=O)N[C@@H](CO)C(=O)NCC(=O)N[C@@H](C)C(=O)N1CCC[C@H]1C(=O)N1CCC[C@H]1C(=O)N1CCC[C@H]1C(=O)N[C@@H](CO)C(N)=O)[C@@H](C)CC)C(=O)O` [Example 4, N-ε^20-[2-(2-[2-(2-[2-(2-[4-hexadecanoylamino-4(S)-carboxybutyrylamino]ethoxy)ethoxy]acetylamino)ethoxy]ethoxy)acetyl] [Arg^12,27,28,Leu^14,Lys^20]Exendin-4(1-39)amide] (H-HGEGTFTSDLSRQLEEEAVK([AEEA-AEEA-γGlu-Palmitoyl])LFIEWLRRGGPSSGAPPPS-NH2; N-terminus assumed): the concentration giving a half-maximal response (EC50) at human GLP-1 receptor (setting [2]) was 0.027 nM. In the case of `CCCCCCCCCCCCCCCCCC(=O)N[C@@H](CCC(=O)NCCOCCOCC(=O)NCCOCCOCC(=O)NCCCC[C@H](NC(=O)[C@@H]1CCCN1C(=O)CNC(=O)CNC(=O)[C@H](CCCNC(=N)N)NC(=O)[C@@H](NC(=O)[C@H](CC(C)C)NC(=O)[C@H](Cc1c[nH]c2ccccc12)NC(=O)[C@H](CCC(=O)O)NC(=O)[C@@H](NC(=O)[C@H](Cc1ccccc1)NC(=O)[C@H](CC(C)C)NC(=O)[C@H](CCCNC(=N)N)NC(=O)[C@@H](NC(=O)[C@H](C)NC(=O)[C@H](CCC(=O)O)NC(=O)[C@H](CCC(=O)O)NC(=O)[C@H](CCC(=O)O)NC(=O)[C@H](CC(C)C)NC(=O)[C@H](CCC(N)=O)NC(=O)[C@H](CCCNC(=N)N)NC(=O)[C@H](CO)NC(=O)[C@H](CC(C)C)NC(=O)[C@H](CC(=O)O)NC(=O)[C@H](CO)NC(=O)[C@@H](NC(=O)[C@H](Cc1ccccc1)NC(=O)[C@@H](NC(=O)CNC(=O)[C@H](CCC(=O)O)NC(=O)CNC(=O)[C@@H](N)Cc1c[nH]cn1)[C@@H](C)O)[C@@H](C)O)C(C)C)[C@@H](C)CC)C(C)C)C(=O)N[C@@H](CO)C(=O)NCC(=O)N[C@@H](C)C(=O)N1CCC[C@H]1C(=O)N1CCC[C@H]1C(=O)N1CCC[C@H]1C(=O)N[C@@H](CO)C(N)=O)C(=O)O` [Example 17, N-ε^32-(2-(2-(2-(2-(2-(2-(4-(Octadecanoylamino)-4(S)-carboxybutyrylamino))ethoxy)ethoxy)acetylamino)ethoxy)ethoxy)acetyl[Arg^12,Leu^14,Val^27,Arg^28,Lys^32]Exendin-4-(1-39)amide] (H-HGEGTFTSDLSRQLEEEAVRLFIEWLVRGGPK([AEEA-AEEA-γGlu-Stearoyl])SGAPPPS-NH2; N-terminus assumed), the EC50 at human GLP-1 receptor stood at 0.025 nM.
